Test results as given in patent publication US6743802B2, “Alkyne-aryl phosphodiesterase-4 inhibitors” (Merck Frosst Canada & Co., priority 2001, dated 2004).

Test system: TNF-α and LTB4
Test: LPS and FMLP-induced TNF-α and LTB4 assays in human whole blood
Type: cell-based
Conditions: LPS 1 μg/mL 24 h, then LPS and fMLP 1 μM challenge, marker (TNF-α or LTB4) not specified
Description: Whole blood provides a protein and cell-rich milieu appropriate for the study of biochemical efficacy of anti-inflammatory compounds such as PDE4-selective inhibitors. […] Upon stimulation with LPS, activated monocytes express and secrete TNF-α up to 8 hours and plasma levels remain stable for 24 hours. Published studies have shown that inhibition of TNF-α by increasing intracellular cAMP via PDE4 inhibition and/or enhanced adenylyl cyclase activity occurs at the transcriptional level. […] As there is little LTB4 produced during a 24 hour LPS stimulation of whole blood, an additional LPS stimulation followed by fMLP challenge of human whole blood is necessary for LTB4 synthesis by activated neutrophils. Thus, by using the same blood sample, it is possible to evaluate the potency of a compound on two surrogate markers of PDE4 activity in the whole blood by the following procedure.
Fresh blood was collected in heparinized tubes by venipuncture from healthy human volunteers (male and female). These subjects had no apparent inflammatory conditions and had not taken any NSAIDs for at least 4 days prior to blood collection. 500 μL aliquots of blood were pre-incubated with either 2 μL of vehicle (DMSO) or 2 μL of test compound at varying concentrations for 15 minutes at 37° C. […]

CC(C)NC(=O)c1cn(-c2cccc(C#Cc3cccc(C(C)(C)O)n3)c2)c2ncccc2c1=O [Example 28, N-Isopropyl-1-{3-[6-(1-hydroxy-1-methylethyl)-2-pyridinylethynyl]phenyl}-1,4-dihydro [1,8]naphthyridin-4-one-3-carboxamide]
IC50: 0.01 to 2.4 µM
